Experiments:
[1] = test system: unidentified influenza virus; assay: Antiviral activity against influenza virus; type: functional, organism-based
[2] = test system: Hepatitis B virus; assay: Antiviral activity against Hepatitis B virus; type: functional, organism-based
[3] = test system: Human betaherpesvirus 5; assay: Antiviral activity against Human cytomegalovirus; type: functional, organism-based; conditions: Human betaherpesvirus 5
[4] = test system: Human alphaherpesvirus 2; assay: Antiviral activity against Herpes simplex virus 2; type: functional, organism-based; conditions: Human alphaherpesvirus 2
[5] = test system: Human alphaherpesvirus 3; assay: Antiviral activity against Varicella zoster virus; type: functional, organism-based
[6] = test system: Human immunodeficiency virus 1; assay: Antiviral activity against HIV1; type: functional, organism-based
[7] = test system: Human alphaherpesvirus 1; assay: Antiviral activity against Herpes simplex virus 1; type: functional, organism-based; conditions: Human alphaherpesvirus 1
[8] = test system: Vaccinia virus; assay: Antiviral activity against Vaccinia virus; type: functional, organism-based, Orthopoxvirus vaccinia; conditions: Orthopoxvirus vaccinia

## NC(=O)/C(O)=C/C(=O)C1CCCCC1
[1]
  IC50: 500 µM

## Cc1ccc(Sc2nc(N)nc3c2ncn3CCOCP(=O)(OCC(F)(F)F)OCC(F)(F)F)cc1
[2]
  IC50: 0.06 µM

## Nc1nc(Sc2ccc(OC(F)(F)F)cc2)c2ncn(CCOCP(=O)(OCC(F)(F)F)OCC(F)(F)F)c2n1
[2]
  IC50: 0.06 µM

## CC(C)Oc1cccc(S(=O)(=O)N2CCC[C@H]2C(=O)N2CC[C@H]3[C@H]2[C@H](C)C(=O)N3C(=O)C2CC2)c1
[3]
  IC50: 65 µM

## Nc1nc(NC2CC2)cc(=O)n1CCOCP(=O)(O)O
[4]
  IC50: 5.26e-05 µM
[5]
  IC50: 0.000164 µM
[6]
  IC50: 0.000329 µM
[7]
  IC50: 5.26e-05 µM

## CCc1ccc(Sc2nc(N)nc3c2ncn3CCOCP(=O)(OCC(F)(F)F)OCC(F)(F)F)cc1
[2]
  IC50: 0.4 µM

## COc1c(C=O)c2cc(Cl)c(Cl)cc2n1[C@H]1C[C@H](O)[C@@H](CO)O1
[3]
  IC50: 100 µM
[6]
  IC50: 100 µM

## CC(C)Oc1ccc(NC(=O)N2CCC[C@H]2C(=O)N2CC[C@H]3[C@H]2[C@H](C)C(=O)N3C(=O)C2CC2)cc1
[3]
  IC50: 0.18 µM

## COc1ccc(Sc2nc(N)nc3c2ncn3CCOCP(=O)(OCC(F)(F)F)OCC(F)(F)F)cc1 [ALAMIFOVIR]
[2]
  IC50: 0.03 µM

## CC(C)c1ccc(Sc2nc(N)nc3c2ncn3CCOCP(=O)(OCC(F)(F)F)OCC(F)(F)F)cc1
[2]
  IC50: 0.98 µM

## Nc1nc(Sc2ccc3ccccc3c2)c2ncn(CCOCP(=O)(OCC(F)(F)F)OCC(F)(F)F)c2n1
[2]
  IC50: 0.09 µM

## CC(C)Oc1ccc(Sc2nc(N)nc3c2ncn3CCOCP(=O)(OCC(F)(F)F)OCC(F)(F)F)cc1
[2]
  IC50: 0.29 µM

## NN1C(=O)Cc2ccccc2C1=O
[1]
  IC50: 800 µM

## CC(=O)OC[C@H]1S[C@@H](n2nc(C)c(=S)[nH]c2=O)C[C@@H]1OC(C)=O
[4]
  IC50: 8 µM
[7]
  IC50: 8 µM

## COc1ccccc1Sc1nc(N)nc2c1ncn2CCOCP(=O)(OCC(F)(F)F)OCC(F)(F)F
[2]
  IC50: 0.08 µM

## CC(C)COc1ccc(Sc2nc(N)nc3c2ncn3CCOCP(=O)(OCC(F)(F)F)OCC(F)(F)F)cc1
[2]
  IC50: 0.84 µM

## C[C@@H]1C(=O)N(C(=O)C2CC2)[C@H]2CCN(C(=O)[C@@H]3CCCN3C(=O)c3cccc4ccccc34)[C@H]12
[3]
  IC50: 0.89 µM

## O=C1Cc2ccccc2C(=O)N1O
[1]
  IC50: 710 µM

## CCCOc1ccc(Sc2nc(N)nc3c2ncn3CCOCP(=O)(OCC(F)(F)F)OCC(F)(F)F)cc1
[2]
  IC50: 0.87 µM

## Nc1nc(Sc2ccc(Cl)cc2)c2ncn(CCOCP(=O)(OCC(F)(F)F)OCC(F)(F)F)c2n1
[2]
  IC50: 0.12 µM

## C[C@@H]1C(=O)N(C(=O)C2CC2)[C@H]2CCN(C(=O)[C@@H]3CCCN3S(=O)(=O)c3ccc4ccccc4c3)[C@H]12
[3]
  IC50: 0.19 µM

## O=C(Nc1ccc2c(c1)N(O)C(=O)/C2=C(\O)c1ccccc1)c1ccc(NS(=O)(=O)c2cccs2)cc1
[1]
  IC50: 48 µM

## O=C(/C=C/c1ccccc1Cl)Nc1ccc(C(=O)Nc2ccc3c(c2)N(O)C(=O)/C3=C(\O)c2ccccc2)cc1
[1]
  IC50: 9.5 µM

## O=c1[nH]c(=O)n([C@H]2C[C@H](O)[C@]3(CO)C[C@H]23)cc1Br
[4]
  IC50: 2.2 µM
[7]
  IC50: 1.23 µM

## O=C1c2ccccc2C(=O)N1O
[1]
  IC50: 500 µM

## N#Cc1c(Cl)n([C@@H]2O[C@H](CN=[N+]=[N-])[C@@H](O)[C@H]2O)c2cc(Cl)c(Cl)cc12
[3]
  IC50: 3 µM
[6]
  IC50: 15 µM

## O=C(NO)c1ccccc1 [BENZOHYDROXAMATE]
[1]
  IC50: 500 µM

## CCCOc1ccc(NC(=O)N2CCC[C@H]2C(=O)N2CC[C@H]3[C@H]2[C@H](C)C(=O)N3C(=O)C2CC2)cc1
[3]
  IC50: 0.21 µM

## CCCCCCCCCCCCCCCCCCOCCOP1(=O)CO[C@@H](Cn2ccc(N)nc2=O)CO1 (stereo not given in full)
[8]
  IC50: 0.58 µM

## Cc1nn([C@H]2C[C@H](O)[C@@H](CO)S2)c(=O)nc1O
[4]
  IC50: 3.3 µM
[5]
  IC50: 5 µM
[8]
  IC50: 2.2 µM
[3]
  IC50: 200 µM
[7]
  IC50: 18 µM

## CC(NP1(=O)CO[C@@H](Cn2ccc(N)nc2=O)CO1)C(=O)OCCc1ccccc1 (stereo not given in full)
[8]
  IC50: 7.1 µM

## O=C(O)/C(O)=C/C(=O)c1ccc(C2CCCCC2)cc1
[1]
  IC50: 5 µM

## C[C@@H]1C(=O)N(C(=O)C2CC2)[C@H]2CCN(C(=O)[C@@H]3CCCN3C(=O)Nc3cccc4ccccc34)[C@H]12
[3]
  IC50: 0.65 µM

## O=c1[nH]c(=O)n([C@H]2C[C@H](O)[C@]3(CO)C[C@H]23)cc1/C=C/Br
[4]
  IC50: 291 µM
[7]
  IC50: 6.41 µM

## Nc1ncnc2c1ncn2CCOCP(=O)(O)O [ADEFOVIR]
[7]
  IC50: 2.4e-05 µM

## CC(C)/C=C1\N=C(CC(C)C)C(=O)N(O)C1=O
[1]
  IC50: 5.5 µM

## CC(=O)Nc1nc(C)c(S(=O)(=O)Nc2ccc(C(=O)Nc3ccc4c(c3)N(O)C(=O)/C4=C(\O)c3ccccc3)cc2)s1
[1]
  IC50: 32 µM

## OC[C@H]1O[C@@H](n2c(Cl)nc3cc(Cl)c(Cl)cc32)[C@H](O)[C@@H]1O
[3]
  IC50: 3.2 µM

## O=C1CCc2ccccc2C(=O)N1O
[1]
  IC50: 1000 µM

## C[C@@H]1C(=O)N(C(=O)C2CC2)[C@H]2CCN(C(=O)[C@@H]3CCCN3C(=O)c3ccc(Cl)cc3)[C@H]12
[3]
  IC50: 1.4 µM

## O=c1[nH]c(=O)n([C@H]2C[C@H](O)[C@]3(CO)C[C@H]23)cc1I
[4]
  IC50: 9.06 µM
[7]
  IC50: 275 µM

## CC(=O)c1c(O)n(O)c2cc(NC(=O)c3ccc4ccccc4c3)ccc12
[1]
  IC50: 9 µM
